Results: patent publication EP0726263A2, “Herbicidal (1,3,4)oxadiazoles and thiadiazoles” (American Cyanamid Company, priority 1995, dated 1996)

How the values were obtained:
Format in all cases: in vivo
[1] = test system: Gossypium hirsutum; assay: Herbicidal activity, preemergence test; conditions: pre; sprayed onto soil, 800 g of active material per hectare; evaluated 3 weeks after treatment
Method: (§1) To evaluate their herbicidal activity, compounds according to the invention are tested using a representative range of plants: TRZAW Triticum aestivum HORVW Hordeum vulgare ZEAMX Zea mays GOSHI Gossypium hirsutum HELAN Helianthus annuus GLYMA Glycine max ALOMY Alopecurus myosuroides SETVI Setaria viridis ECHCG Echinochloa crus-galli GALAP Galium aparine STEME Stellaria media VERPE Veronica persica VIOAR Viola arvensis IPOHE Ipomoea hederacea LAMPU Lamium purpureum PAPRH Papaver rhoeas MATIN Matricaria inodora AMARE Amaranthus retroflexus ABUTH Abutilon theophrasti AMBEL Ambrosia artemisifolia CHEAL Chenopodium album
(§2) The tests fall into two categories, preemergence and postemergence. The preemergence tests involve spraying a liquid formulation of the compound onto the soil in which the seeds have recently been sown. The postemergence tests involve spraying a liquid formulation of the compound onto seedling plants.
(§3) The soil used in the tests is a prepared horticultural loam.
(§4) The formulations used in the tests are prepared from solutions of the test compounds in acetone containing 0.4% by weight of an alkylphenol/ethylene oxide condensate available under the trade mark TRITON X-155. These acetone solutions are diluted with water and the resulting formulations applied at dosage levels corresponding to 800 g of active material per hectare in a volume equivalent to 900 litres per hectare.
(§5) In the preemergence tests untreated sown soil and in the postemergence tests untreated soil bearing seedling plants are used as controls.
(§6) Results of herbicide evaluation are expressed on a rating scale (0-9). The scale is based upon a visual observation of plant stand, vigor, malformation, size, chlorosis, and general plant appearance as compared to a control. Preemergence and postemergence treatments are evaluated at 3 and 2 weeks after treatment, respectively.

[2] = test system: Papaver rhoeas; assay: Herbicidal activity, preemergence test; conditions: pre; sprayed onto soil, 800 g of active material per hectare; evaluated 3 weeks after treatment
Method: as §1, §2, §3, §4, §5, §6

[3] = test system: Stellaria media; assay: Herbicidal activity, preemergence test; conditions: pre; sprayed onto soil, 800 g of active material per hectare; evaluated 3 weeks after treatment
Method: as §1, §2, §3, §4, §5, §6

[4] = test system: Veronica persica; assay: Herbicidal activity, preemergence test; conditions: pre; sprayed onto soil, 800 g of active material per hectare; evaluated 3 weeks after treatment
Method: as §1, §2, §3, §4, §5, §6

[5] = test system: Chenopodium album; assay: Herbicidal activity, preemergence test; conditions: pre; sprayed onto soil, 800 g of active material per hectare; evaluated 3 weeks after treatment
Method: as §1, §2, §3, §4, §5, §6

[6] = test system: Amaranthus retroflexus; assay: Herbicidal activity, preemergence test; conditions: pre; sprayed onto soil, 800 g of active material per hectare; evaluated 3 weeks after treatment
Method: as §1, §2, §3, §4, §5, §6

[7] = test system: Galium aparine; assay: Herbicidal activity, preemergence test; conditions: pre; sprayed onto soil, 800 g of active material per hectare; evaluated 3 weeks after treatment
Method: as §1, §2, §3, §4, §5, §6

[8] = test system: Ambrosia artemisifolia; assay: Herbicidal activity, preemergence test; conditions: pre; sprayed onto soil, 800 g of active material per hectare; evaluated 3 weeks after treatment
Method: as §1, §2, §3, §4, §5, §6

[9] = test system: Lamium purpureum; assay: Herbicidal activity, preemergence test; conditions: pre; sprayed onto soil, 800 g of active material per hectare; evaluated 3 weeks after treatment
Method: as §1, §2, §3, §4, §5, §6

[10] = test system: Zea mays; assay: Herbicidal activity, preemergence test; conditions: pre; sprayed onto soil, 800 g of active material per hectare; evaluated 3 weeks after treatment
Method: as §1, §2, §3, §4, §5, §6

[11] = test system: Matricaria inodora; assay: Herbicidal activity, preemergence test; conditions: pre; sprayed onto soil, 800 g of active material per hectare; evaluated 3 weeks after treatment
Method: as §1, §2, §3, §4, §5, §6

[12] = test system: Ipomoea hederacea; assay: Herbicidal activity, preemergence test; conditions: pre; sprayed onto soil, 800 g of active material per hectare; evaluated 3 weeks after treatment
Method: as §1, §2, §3, §4, §5, §6

[13] = test system: Glycine max; assay: Herbicidal activity, preemergence test; conditions: pre; sprayed onto soil, 800 g of active material per hectare; evaluated 3 weeks after treatment
Method: as §1, §2, §3, §4, §5, §6

[14] = test system: Alopecurus myosuroides; assay: Herbicidal activity, preemergence test; conditions: pre; sprayed onto soil, 800 g of active material per hectare; evaluated 3 weeks after treatment
Method: as §1, §2, §3, §4, §5, §6

[15] = test system: Setaria viridis; assay: Herbicidal activity, preemergence test; conditions: pre; sprayed onto soil, 800 g of active material per hectare; evaluated 3 weeks after treatment
Method: as §1, §2, §3, §4, §5, §6

[16] = test system: Hordeum vulgare; assay: Herbicidal activity, preemergence test; conditions: pre; sprayed onto soil, 800 g of active material per hectare; evaluated 3 weeks after treatment
Method: as §1, §2, §3, §4, §5, §6

[17] = test system: Abutilon theophrasti; assay: Herbicidal activity, preemergence test; conditions: pre; sprayed onto soil, 800 g of active material per hectare; evaluated 3 weeks after treatment
Method: as §1, §2, §3, §4, §5, §6

[18] = test system: Triticum aestivum; assay: Herbicidal activity, preemergence test; conditions: pre; sprayed onto soil, 800 g of active material per hectare; evaluated 3 weeks after treatment
Method: as §1, §2, §3, §4, §5, §6

[19] = test system: Gossypium hirsutum; assay: Herbicidal activity, postemergence test; conditions: post; sprayed onto seedling plants, 800 g of active material per hectare; evaluated 2 weeks after treatment
Method: as §1, §2, §3, §4, §5, §6

[20] = test system: Papaver rhoeas; assay: Herbicidal activity, postemergence test; conditions: post; sprayed onto seedling plants, 800 g of active material per hectare; evaluated 2 weeks after treatment
Method: as §1, §2, §3, §4, §5, §6

[21] = test system: Stellaria media; assay: Herbicidal activity, postemergence test; conditions: post; sprayed onto seedling plants, 800 g of active material per hectare; evaluated 2 weeks after treatment
Method: as §1, §2, §3, §4, §5, §6

[22] = test system: Veronica persica; assay: Herbicidal activity, postemergence test; conditions: post; sprayed onto seedling plants, 800 g of active material per hectare; evaluated 2 weeks after treatment
Method: as §1, §2, §3, §4, §5, §6

[23] = test system: Chenopodium album; assay: Herbicidal activity, postemergence test; conditions: post; sprayed onto seedling plants, 800 g of active material per hectare; evaluated 2 weeks after treatment
Method: as §1, §2, §3, §4, §5, §6

[24] = test system: Amaranthus retroflexus; assay: Herbicidal activity, postemergence test; conditions: post; sprayed onto seedling plants, 800 g of active material per hectare; evaluated 2 weeks after treatment
Method: as §1, §2, §3, §4, §5, §6

[25] = test system: Galium aparine; assay: Herbicidal activity, postemergence test; conditions: post; sprayed onto seedling plants, 800 g of active material per hectare; evaluated 2 weeks after treatment
Method: as §1, §2, §3, §4, §5, §6

[26] = test system: Ambrosia artemisifolia; assay: Herbicidal activity, postemergence test; conditions: post; sprayed onto seedling plants, 800 g of active material per hectare; evaluated 2 weeks after treatment
Method: as §1, §2, §3, §4, §5, §6

[27] = test system: Lamium purpureum; assay: Herbicidal activity, postemergence test; conditions: post; sprayed onto seedling plants, 800 g of active material per hectare; evaluated 2 weeks after treatment
Method: as §1, §2, §3, §4, §5, §6

[28] = test system: Zea mays; assay: Herbicidal activity, postemergence test; conditions: post; sprayed onto seedling plants, 800 g of active material per hectare; evaluated 2 weeks after treatment
Method: as §1, §2, §3, §4, §5, §6

[29] = test system: Matricaria inodora; assay: Herbicidal activity, postemergence test; conditions: post; sprayed onto seedling plants, 800 g of active material per hectare; evaluated 2 weeks after treatment
Method: as §1, §2, §3, §4, §5, §6

[30] = test system: Ipomoea hederacea; assay: Herbicidal activity, postemergence test; conditions: post; sprayed onto seedling plants, 800 g of active material per hectare; evaluated 2 weeks after treatment
Method: as §1, §2, §3, §4, §5, §6

[31] = test system: Glycine max; assay: Herbicidal activity, postemergence test; conditions: post; sprayed onto seedling plants, 800 g of active material per hectare; evaluated 2 weeks after treatment
Method: as §1, §2, §3, §4, §5, §6

[32] = test system: Alopecurus myosuroides; assay: Herbicidal activity, postemergence test; conditions: post; sprayed onto seedling plants, 800 g of active material per hectare; evaluated 2 weeks after treatment
Method: as §1, §2, §3, §4, §5, §6

[33] = test system: Setaria viridis; assay: Herbicidal activity, postemergence test; conditions: post; sprayed onto seedling plants, 800 g of active material per hectare; evaluated 2 weeks after treatment
Method: as §1, §2, §3, §4, §5, §6

[34] = test system: Hordeum vulgare; assay: Herbicidal activity, postemergence test; conditions: post; sprayed onto seedling plants, 800 g of active material per hectare; evaluated 2 weeks after treatment
Method: as §1, §2, §3, §4, §5, §6

[35] = test system: Abutilon theophrasti; assay: Herbicidal activity, postemergence test; conditions: post; sprayed onto seedling plants, 800 g of active material per hectare; evaluated 2 weeks after treatment
Method: as §1, §2, §3, §4, §5, §6

[36] = test system: Triticum aestivum; assay: Herbicidal activity, postemergence test; conditions: post; sprayed onto seedling plants, 800 g of active material per hectare; evaluated 2 weeks after treatment
Method: as §1, §2, §3, §4, §5, §6

For C[C@H](NC(=O)c1nnc(-c2ccccc2F)o1)c1ccccc1 [Example 10], the “GOSHI control rating (0-9)” value [1] was 0 (no effect), the “PAPRH control rating (0-9)” value [2] was 9 (complete kill) and the “STEME control rating (0-9)” value [3] was 9 (complete kill). For the same molecule, the “VERPE control rating (0-9)” value [4] was 9 (complete kill), the “CHEAL control rating (0-9)” value [5] was 8 (approaching complete kill) and the “AMARE control rating (0-9)” value [6] was 8 (approaching complete kill). The “GALAP control rating (0-9)” value [7] was 0 (no effect), the “AMBEL control rating (0-9)” value [8] was 3 (moderate effect) and the “LAMPU control rating (0-9)” value [9] was 8 (approaching complete kill). The “ZEAMX control rating (0-9)” value [10] was 0 (no effect), the “MATIN control rating (0-9)” value [11] was 8 (approaching complete kill) and the “IPOHE control rating (0-9)” value [12] was 0 (no effect). The “GLXMA control rating (0-9)” value [13] was 2 (slight effect), the “ALOMY control rating (0-9)” value [14] was 1 (trace effect) and the “SETVI control rating (0-9)” value [15] was 3 (moderate effect). For the same molecule, the “HORVW control rating (0-9)” value [16] was 0 (no effect), the “ABUTH control rating (0-9)” value [17] was 0 (no effect) and the “TRZAW control rating (0-9)” value [18] was 0 (no effect). The “GOSHI control rating (0-9)” value [19] was 8 (approaching complete kill), the “PAPRH control rating (0-9)” value [20] was 8 (approaching complete kill) and the “STEME control rating (0-9)” value [21] was 9 (complete kill). For the same molecule, the “VERPE control rating (0-9)” value [22] was 9 (complete kill), the “CHEAL control rating (0-9)” value [23] was 7 (good herbicidal effect) and the “AMARE control rating (0-9)” value [24] was 9 (complete kill). For the same molecule, the “GALAP control rating (0-9)” value [25] was 6 (herbicidal effect), the “AMBEL control rating (0-9)” value [26] was 7 (good herbicidal effect) and the “LAMPU control rating (0-9)” value [27] was 8 (approaching complete kill). The “ZEAMX control rating (0-9)” value [28] was 3 (moderate effect), the “MATIN control rating (0-9)” value [29] was 0 (no effect) and the “IPOHE control rating (0-9)” value [30] was 8 (approaching complete kill). The “GLXMA control rating (0-9)” value [31] was 4 (injury), the “ALOMY control rating (0-9)” value [32] was 0 (no effect) and the “SETVI control rating (0-9)” value [33] was 9 (complete kill). For the same molecule, the “HORVW control rating (0-9)” value [34] was 4 (injury), the “ABUTH control rating (0-9)” value [35] was 9 (complete kill) and the “TRZAW control rating (0-9)” value [36] was 2 (slight effect).
